This note sets out measurements from PubChem BioAssay AID330 (DTP/NCI, 2004).

Where “and” joins values, the source holds several entries; their conditions need not be identical. Equal entries are not always repeated. Toxic doses and inconclusive results are not listed.

The test system of the test is P388 leukemia ip, CD2F1 mice, survival T/C. Kind of test: NCI In Vivo Anticancer Drug Screen. Data for tumor model P388 Leukemia (intraperitoneal) in CD2F1 (CDF1) mice. Particulars: endpoint: median survival time, higher = longer survival. The procedure, abridged:
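Mice carrying the transplanted tumor received test compound or vehicle. Survival was recorded in each group, and the value is the treated-group measurement divided by that of the vehicle-treated control group.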

Setting [1] is: dose: 25.0 mg/kg/injection, schedule: Q01DX009 (ip), vehicle: Klucel (hydroxypropylcellulose) (HPC).
[2] abbreviates: dose: 50.0 mg/kg/injection, schedule: Q01DX009 (ip), vehicle: Klucel (hydroxypropylcellulose) (HPC).
The mark [3] stands for this setting: dose: 100.0 mg/kg/injection, schedule: Q01DX009 (ip), vehicle: saline with Tween-80.
Setting [4] is: dose: 6.25 mg/kg/injection, schedule: Q01DX009 (ip), vehicle: Klucel (hydroxypropylcellulose) (HPC).
Setting [5] is: dose: 12.5 mg/kg/injection, schedule: Q01DX009 (ip), vehicle: Klucel (hydroxypropylcellulose) (HPC).
The mark [6] stands for this setting: dose: 60.0 mg/kg/injection, schedule: Q01DX005 (ip), vehicle: saline with Tween-80.
The mark [7] stands for this setting: dose: 240.0 mg/kg/injection, schedule: Q01DX005 (ip), vehicle: saline with Tween-80.
Setting [8] is: dose: 50.0 mg/kg/injection, schedule: Q01DX009 (ip), vehicle: saline.
[9] abbreviates: dose: 100.0 mg/kg/injection, schedule: Q01DX009 (ip), vehicle: saline.
Setting [10] is: dose: 200.0 mg/kg/injection, schedule: Q01DX009 (ip), vehicle: saline.

Take `CCC/C=C/C=C/C(=O)OC1/C(=C/C(=O)OC)CC2CC(C(C)O)OC(=O)CC(O)CC3CC(OC(C)=O)C(C)(C)C(O)(CC4C/C(=C/C(=O)OC)CC(/C=C/C(C)(C)C1(O)O2)O4)O3` (centres undefined): the T/C (dose: 0.01 mg/kg/injection, schedule: Q01DX009 (ip), vehicle: saline + alcohol) was 152 % of control; the T/C (dose: 0.03 mg/kg/injection, schedule: Q01DX009 (ip), vehicle: saline + alcohol) was 186 % of control; the T/C (dose: 0.07 mg/kg/injection, schedule: Q01DX009 (ip), vehicle: saline + alcohol) was 163 % of control and 196 % of control; the T/C (dose: 0.15 mg/kg/injection, schedule: Q01DX009 (ip), vehicle: saline + alcohol) was 179 % of control; the T/C (dose: 18.75 micrograms/kg/injection, schedule: Q01DX009 (ip), vehicle: saline + alcohol) was 175 % of control; the T/C (dose: 37.5 micrograms/kg/injection, schedule: Q01DX009 (ip), vehicle: saline + alcohol) is 177 % of control. Moreover, the T/C (dose: 75.0 micrograms/kg/injection, schedule: Q01DX009 (ip), vehicle: saline + alcohol) is 177 % of control.
Take `Cc1cc(C)cc(N(C2=NCCS2)C2=NCCS2)c1`: the T/C reads like this: under setting [1], 106 % of control; under setting [2], 101 % of control; (dose: 100.0 mg/kg/injection, schedule: Q01DX009 (ip), vehicle: Klucel (hydroxypropylcellulose) (HPC)) 99 % of control; (dose: 200.0 mg/kg/injection, schedule: Q01DX009 (ip), vehicle: Klucel (hydroxypropylcellulose) (HPC)) 104 % of control.
`COc1ccc(OCC(O)CN2CCN(c3ccc(Cl)cc3)CC2)cc1` (centres undefined): the T/C was 99 % of control under setting [3]; 100 % of control (dose: 100.0 mg/kg/injection, schedule: Q04DX003 (ip), vehicle: Klucel (hydroxypropylcellulose) (HPC)); 101 % of control (dose: 200.0 mg/kg/injection, schedule: Q01DX009 (ip), vehicle: saline with Tween-80); 100 % of control (dose: 200.0 mg/kg/injection, schedule: Q04DX003 (ip), vehicle: Klucel (hydroxypropylcellulose) (HPC)); 92 % of control (dose: 400.0 mg/kg/injection, schedule: Q01DX009 (ip), vehicle: saline with Tween-80).
In the case of `CCCCCCCCCCC1OCN2CC(CC)CCC12` (centres undefined), the T/C is, setting by setting: (dose: 50.0 mg/kg/injection, schedule: Q01DX005 (ip), vehicle: saline) 100 % of control; (dose: 100.0 mg/kg/injection, schedule: Q01DX005 (ip), vehicle: saline) 101 % of control; (dose: 200.0 mg/kg/injection, schedule: Q01DX005 (ip), vehicle: saline) 105 % of control.
As to `CCCCCCCCCCCCCCCCCCSC1=CC(=O)C(OC)=C(OC)C1=O`, the T/C was 92 % of control (dose: 3.13 mg/kg/injection, schedule: Q01DX009 (ip), vehicle: Klucel (hydroxypropylcellulose) (HPC)); 100 % of control under setting [4]; 100 % of control under setting [5]; 92 % of control under setting [1]; 97 % of control under setting [2].
Turning to `O=C1CN(c2ccccc2)C(=O)C1C(=O)Nc1ccc(Cl)c(Cl)c1` (centres undefined), the T/C is, setting by setting: (dose: 30.0 mg/kg/injection, schedule: Q01DX005 (ip), vehicle: saline with Tween-80) 117 % of control; under setting [6], 121 % of control and 123 % of control; under setting [7], 90 % of control.
In the case of `CCOC(=O)c1c2c(n(-c3ccccc3)c1C)C(=O)c1ccccc1C2=O`, the T/C is, setting by setting: under setting [8], 99 % of control; under setting [9], 92 % of control; under setting [10], 98 % of control.
Turning to `COC1=Cc2c(oc3c(C(C)(C)C)cc(OC)cc23)OC(C(C)(C)C)=C1`, the T/C is, setting by setting: under setting [8], 104 % of control; under setting [9], 100 % of control; under setting [10], 100 % of control.
`O=C(CCl)NNc1cccc(Cl)n1`: the T/C is, setting by setting: (dose: 50.0 mg/kg/injection, schedule: Q01DX001 (ip), vehicle: Klucel (hydroxypropylcellulose) (HPC)) 98 % of control; (dose: 100.0 mg/kg/injection, schedule: Q01DX001 (ip), vehicle: Klucel (hydroxypropylcellulose) (HPC)) 98 % of control; (dose: 200.0 mg/kg/injection, schedule: Q01DX001 (ip), vehicle: Klucel (hydroxypropylcellulose) (HPC)) 93 % of control.
On to `CCOC(=O)[C]1([Pb]([CH3])([CH3])[CH3])N=NC(C(=O)OC)=C1C(=O)OC` (centres undefined), for which the T/C is 89 % of control (dose: 0.78 mg/kg/injection, schedule: Q01DX009 (ip), vehicle: saline); 90 % of control (dose: 1.56 mg/kg/injection, schedule: Q01DX009 (ip), vehicle: saline); 90 % of control (dose: 3.12 mg/kg/injection, schedule: Q01DX009 (ip), vehicle: saline).
For the compound `CCC12CCCN3CCc4c(n(c5ccc(Br)cc45)C(=O)/C(=N\O)C1)C32` (centres undefined), the T/C is 101 % of control under setting [6]; 97 % of control (dose: 120.0 mg/kg/injection, schedule: Q01DX005 (ip), vehicle: saline with Tween-80); 97 % of control under setting [7].
Take `CCc1cc2c(=O)[nH]c(-c3cccnc3)nc2s1`: the T/C is 106 % of control (dose: 50.0 mg/kg/injection, schedule: Q01DX005 (ip), vehicle: Klucel (hydroxypropylcellulose) (HPC)); 100 % of control (dose: 100.0 mg/kg/injection, schedule: Q01DX005 (ip), vehicle: Klucel (hydroxypropylcellulose) (HPC)); 88 % of control (dose: 200.0 mg/kg/injection, schedule: Q01DX005 (ip), vehicle: Klucel (hydroxypropylcellulose) (HPC)).
As for `CNCCN=c1ccc2c3c1c(O)c1c(O)ccc(=O)c1c3[nH]n2CCNCCO`, the T/C (dose: 1.56 mg/kg/injection, schedule: Q04DX002 (ip), vehicle: water) was 167 % of control and 186 % of control; the T/C (dose: 3.12 mg/kg/injection, schedule: Q04DX002 (ip), vehicle: water) is 177 % of control and 268 % of control; the T/C (dose: 6.25 mg/kg/injection, schedule: Q04DX002 (ip), vehicle: water) is 275 % of control and 277 % of control; the T/C (dose: 12.5 mg/kg/injection, schedule: Q04DX002 (ip), vehicle: water) is 275 % of control and 277 % of control; the T/C (dose: 25.0 mg/kg/injection, schedule: Q04DX002 (ip), vehicle: water) is 90 % of control.
With `CCCCC1SC2=NCCCN2C1(O)c1ccc(Cl)cc1` (centres undefined), the T/C reads like this: (dose: 50.0 mg/kg/injection, schedule: Q01DX009 (ip), vehicle: saline with Tween-80) 105 % of control; under setting [3], 106 % of control.
As to `C=CCn1c(=S)sc2ccccc21`, the T/C runs as follows: under setting [4], 105 % of control; under setting [5], 105 % of control; under setting [1], 104 % of control.
As for `CCOC1(NC(=O)N(C)C)CC1`, the T/C (dose: 50.0 mg/kg/injection, schedule: Q04DX003 (ip), vehicle: saline) was 103 % of control; the T/C (dose: 100.0 mg/kg/injection, schedule: Q04DX003 (ip), vehicle: saline) was 102 % of control; the T/C (dose: 200.0 mg/kg/injection, schedule: Q04DX003 (ip), vehicle: saline) was 102 % of control.
On to `C(=C\c1ccc2cc(C3=NCCN3)[nH]c2c1)/c1ccc(Oc2ccc(C3=NCCN3)cc2)cc1` (tested in a mixture with another compound), for which the T/C (dose: 6.25 mg/kg/injection, schedule: Q01DX005 (ip), vehicle: Klucel (hydroxypropylcellulose) (HPC)) is 111 % of control; the T/C (dose: 12.5 mg/kg/injection, schedule: Q01DX005 (ip), vehicle: Klucel (hydroxypropylcellulose) (HPC)) is 97 % of control; the T/C (dose: 25.0 mg/kg/injection, schedule: Q01DX005 (ip), vehicle: Klucel (hydroxypropylcellulose) (HPC)) is 100 % of control.
For the compound `COc1ccc2c(c1)OC1CC2NC(N)=N1` (centres undefined), the T/C reads like this: (dose: 6.25 mg/kg/injection, schedule: Q01DX009 (ip), vehicle: saline) 100 % of control; (dose: 12.5 mg/kg/injection, schedule: Q01DX009 (ip), vehicle: saline) 107 % of control; (dose: 25.0 mg/kg/injection, schedule: Q01DX009 (ip), vehicle: saline) 109 % of control.
